Patent US20250205259A1, “CLASS OF 7-((FIVE-MEMBERED HETEROCYCLIC)METHYL)-8-CARBOXYLIC ACID-BENZO CYCLIC BORATE DERIVATIVES AND USES THEREOF” (priority 2022, published 2025)
Like-named read-outs stand apart in the source and are kept apart here.

Experiments:
Format in all cases: biochemical
TEM-1 = TEM-1 (Escherichia coli, UniProt P62593); experiment: Inhibitory activity on SBL, fluorescent substrate FC-5; settings: for IC50: read-out: Inhibitory activity on SBL TEM-1 (IC50 class); for inhibitory activity on TEM-1 compared to avibactam: comparison in words
IMP-1 = IMP-1 (Serratia marcescens, UniProt P52699); experiment: Inhibitory activity on MBL, fluorescent substrate FC-5
NDM-1 = NDM-1 (Klebsiella pneumoniae, UniProt C7C422); experiment: as above
VIM-2 = VIM-2 (Escherichia coli, UniProt Q5U7L7); experiment: as above
OXA-48 = OXA-48 (Klebsiella pneumoniae, UniProt Q6XEC0); experiment: Inhibitory activity on SBL, fluorescent substrate FC-5; settings: for IC50: read-out: Inhibitory activity on SBL OXA-48 (IC50 class); for inhibitory activity on OXA-48 compared to avibactam: comparison in words
KPC-2 = KPC-2 (Klebsiella pneumoniae, UniProt Q9F663); experiment: as above; settings: for IC50: read-out: Inhibitory activity on SBL KPC-2 (IC50 class); for inhibitory activity on KPC-2 compared to avibactam: comparison in words
VIM-1 = VIM-1 (Pseudomonas aeruginosa, UniProt A0A0F7KYQ8); experiment: Inhibitory activity on MBL, fluorescent substrate FC-5
CTX-M-14 = CTX-M-14 (Escherichia coli, UniProt Q9L5C7); experiment: Inhibitory activity on SBL, fluorescent substrate FC-5; settings: for IC50: read-out: Inhibitory activity on SBL CTX-M-14 (IC50 class); for inhibitory activity on CTX-M-14 compared to avibactam: comparison in words
NDM-5 = NDM-5 (Klebsiella pneumoniae, UniProt C7C422, M154L/V88L); experiment: Inhibitory activity on MBL, fluorescent substrate FC-5
[1] = read-out: Inhibitory activity on MBL IMP-1 (IC50 class)
[2] = read-out: Inhibitory activity on MBL NDM-1 (IC50 class)
[3] = read-out: Inhibitory activity on MBL VIM-2 (IC50 class)
[4] = read-out: Inhibitory activity on MBL VIM-1 (IC50 class)
[5] = read-out: Inhibitory activity on MBL NDM-5 (IC50 class)
[6] = read-out: inhibitory activity at a nanomolar-level on NDM-1
[7] = read-out: inhibitory activity at a nanomolar-level on NDM-5
[8] = VIM-1 and/or VIM-2, read-out: inhibitory activity at a nanomolar-level on VIM-1 and/or VIM-2
[9] = IMP-1 and/or IMP-4, read-out: inhibitory activity at a nanomolar-level on IMP-1 and/or IMP-4

CTX-M-14, sequence (Q9L5C7 entry or part of it): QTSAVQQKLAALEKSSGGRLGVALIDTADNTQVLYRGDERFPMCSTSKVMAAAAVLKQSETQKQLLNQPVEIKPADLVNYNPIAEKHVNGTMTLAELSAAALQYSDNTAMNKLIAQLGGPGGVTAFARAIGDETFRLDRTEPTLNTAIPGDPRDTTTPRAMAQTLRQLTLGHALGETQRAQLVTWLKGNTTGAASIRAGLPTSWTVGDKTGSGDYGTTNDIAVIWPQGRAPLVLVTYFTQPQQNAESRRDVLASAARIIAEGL
NDM-1, sequence (C7C422 29-270 limits assumed): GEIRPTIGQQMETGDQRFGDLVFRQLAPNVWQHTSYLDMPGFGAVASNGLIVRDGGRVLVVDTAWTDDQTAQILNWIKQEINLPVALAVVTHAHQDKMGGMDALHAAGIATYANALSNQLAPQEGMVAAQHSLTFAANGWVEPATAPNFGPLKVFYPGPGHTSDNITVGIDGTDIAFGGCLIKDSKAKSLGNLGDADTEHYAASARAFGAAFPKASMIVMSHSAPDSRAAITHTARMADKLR
NDM-5, sequence (C7C422 29-270 V88L/M154L): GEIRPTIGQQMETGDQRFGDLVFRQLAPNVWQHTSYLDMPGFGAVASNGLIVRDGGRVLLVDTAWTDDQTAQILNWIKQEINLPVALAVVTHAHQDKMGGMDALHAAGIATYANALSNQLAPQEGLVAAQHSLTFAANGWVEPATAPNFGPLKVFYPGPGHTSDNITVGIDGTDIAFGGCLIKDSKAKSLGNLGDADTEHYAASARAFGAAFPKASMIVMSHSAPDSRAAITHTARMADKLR
IMP-1, sequence (P52699 19-246 limits assumed): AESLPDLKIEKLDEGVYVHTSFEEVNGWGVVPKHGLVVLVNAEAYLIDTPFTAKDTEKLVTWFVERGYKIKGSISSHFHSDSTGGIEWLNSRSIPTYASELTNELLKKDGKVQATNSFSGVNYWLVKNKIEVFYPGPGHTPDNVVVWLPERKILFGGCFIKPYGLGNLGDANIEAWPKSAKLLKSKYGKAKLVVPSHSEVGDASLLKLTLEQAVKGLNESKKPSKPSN
OXA-48, sequence (Q6XEC0 23-265 limits assumed): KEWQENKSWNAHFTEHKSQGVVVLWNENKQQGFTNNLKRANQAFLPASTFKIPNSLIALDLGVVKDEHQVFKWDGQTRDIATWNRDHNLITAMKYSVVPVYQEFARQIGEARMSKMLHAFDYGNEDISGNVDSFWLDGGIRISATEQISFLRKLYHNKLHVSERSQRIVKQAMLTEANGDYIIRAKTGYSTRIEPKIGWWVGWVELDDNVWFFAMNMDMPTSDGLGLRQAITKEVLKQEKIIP
KPC-2, sequence (Q9F663 25-293 limits assumed): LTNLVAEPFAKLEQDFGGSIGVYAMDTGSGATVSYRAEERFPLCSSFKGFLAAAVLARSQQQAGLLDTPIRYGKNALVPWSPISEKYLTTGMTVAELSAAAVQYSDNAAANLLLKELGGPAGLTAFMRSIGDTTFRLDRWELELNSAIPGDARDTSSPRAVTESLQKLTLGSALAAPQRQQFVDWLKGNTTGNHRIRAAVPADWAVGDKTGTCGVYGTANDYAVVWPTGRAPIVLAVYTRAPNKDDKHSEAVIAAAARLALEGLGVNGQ
TEM-1, sequence (P62593 24-286 limits assumed): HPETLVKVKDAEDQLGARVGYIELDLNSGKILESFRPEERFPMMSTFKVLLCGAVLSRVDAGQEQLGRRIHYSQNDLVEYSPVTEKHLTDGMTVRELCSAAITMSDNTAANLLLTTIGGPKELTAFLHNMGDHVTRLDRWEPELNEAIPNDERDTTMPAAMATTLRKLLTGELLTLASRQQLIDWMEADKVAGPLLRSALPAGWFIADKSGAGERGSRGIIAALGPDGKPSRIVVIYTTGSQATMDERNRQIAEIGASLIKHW

Row | SMILES | IC50 (TEM-1) | IC50 (IMP-1; [1]) | IC50 (NDM-1; [2]) | IC50 (VIM-2; [3]) | IC50 (OXA-48) | IC50 (KPC-2) | IC50 (VIM-1; [4]) | IC50 (CTX-M-14) | IC50 (NDM-5; [5]) | IC50 (NDM-1; [6]) | IC50 (NDM-5; [7]) | IC50 (VIM-1; [8]) | inhibitory activity on TEM-1 compared to avibactam (TEM-1) | IC50 (IMP-1; [9]) | inhibitory activity on OXA-48 compared to avibactam (OXA-48) | inhibitory activity on KPC-2 compared to avibactam (KPC-2) | inhibitory activity on CTX-M-14 compared to avibactam (CTX-M-14) | IC50 (VIM-2; read-out: inhibitory activity on VIM-2)
1 | CC(N)c1cnn(Cc2ccc3c(c2C(=O)O)OB(O)CC3)c1 (stereo not shown) [Compound 39] | 10 to 1000 nM | 1000 to 100000 nM | 1000 to 100000 nM | 1000 to 100000 nM | 10 to 1000 nM | < 10 nM | 1000 to 100000 nM | 10 to 1000 nM | 1000 to 100000 nM |  |  |  |  |  |  |  |  | 
2 | N[C@H]1CC(=O)N(Cc2ccc3c(c2C(=O)O)OB(O)CC3)C1 [Compound 45] | 10 to 1000 nM | 1000 to 100000 nM | 1000 to 100000 nM | 1000 to 100000 nM | 10 to 1000 nM | 10 to 1000 nM | 1000 to 100000 nM | 10 to 1000 nM | 1000 to 100000 nM |  |  |  |  |  |  |  |  | 
3 | CC(C)(N)C#Cc1cnn(Cc2ccc3c(c2C(=O)O)OB(O)CC3)c1 [Compound 46] | 10 to 1000 nM | 1000 to 100000 nM | 1000 to 100000 nM | 10 to 1000 nM | 10 to 1000 nM | < 10 nM | 1000 to 100000 nM | < 10 nM | 10 to 1000 nM |  |  |  |  |  |  |  |  | 
4 | O=C(O)c1c(Cn2cc(C3CNC3)nn2)ccc2c1OB(O)CC2 [Compound 47] | 10 to 1000 nM | 1000 to 100000 nM | 10 to 1000 nM | 1000 to 100000 nM | 10 to 1000 nM | 10 to 1000 nM | 1000 to 100000 nM | 10 to 1000 nM | 1000 to 100000 nM | < 1000 nM | < 1000 nM |  |  |  |  |  |  | 
5 | O=C(O)c1c(Cn2cc3c(n2)CNC3)ccc2c1OB(O)C=C2 [Compound 52] | 1000 to 100000 nM | 1000 to 100000 nM | 1000 to 100000 nM | 1000 to 100000 nM | 1000 to 100000 nM | 1000 to 100000 nM | 1000 to 100000 nM | 1000 to 100000 nM | 1000 to 100000 nM |  |  |  |  |  |  |  |  | 
6 | O=C(O)c1c(Cn2cc3c(n2)CNC3)ccc2c1OB(O)CC2 [Compound 56] | < 10 nM | 1000 to 100000 nM | 10 to 1000 nM | 10 to 1000 nM | < 10 nM | < 10 nM | 10 to 1000 nM | 10 to 1000 nM | 10 to 1000 nM | < 1000 nM | < 1000 nM | < 1000 nM |  |  |  |  |  | 
7 | Nc1ccc(-c2cn(Cc3ccc4c(c3C(=O)O)OB(O)CC4)nn2)cc1 [Compound 59] | < 10 nM | 10 to 1000 nM | 10 to 1000 nM | 10 to 1000 nM | < 10 nM | < 10 nM | 10 to 1000 nM | < 10 nM | 10 to 1000 nM | < 1000 nM | < 1000 nM | < 1000 nM | better or comparable | < 1000 nM | better or comparable | better or comparable | better or comparable | 
8 | Nc1ccc(-c2cn(Cc3ccc4c(c3C(=O)O)OB(O)CC4)nn2)cn1 [Compound 60] | 10 to 1000 nM | 10 to 1000 nM | 10 to 1000 nM | 10 to 1000 nM | < 10 nM | < 10 nM | 10 to 1000 nM | 10 to 1000 nM | 10 to 1000 nM | < 1000 nM | < 1000 nM | < 1000 nM | better or comparable | < 1000 nM | better or comparable | better or comparable | better or comparable | 
9 | Nc1ncc(-c2cn(Cc3ccc4c(c3C(=O)O)OB(O)CC4)nn2)cn1 [Compound 61] | 10 to 1000 nM | 10 to 1000 nM | 10 to 1000 nM | 10 to 1000 nM | < 10 nM | < 10 nM | 10 to 1000 nM | 10 to 1000 nM | 10 to 1000 nM | < 1000 nM | < 1000 nM | < 1000 nM | better or comparable | < 1000 nM | better or comparable | better or comparable | better or comparable | 
10 | NS(=O)(=O)c1ccc(-c2cn(Cc3ccc4c(c3C(=O)O)OB(O)CC4)nn2)cc1 [Compound 62] | 10 to 1000 nM | 10 to 1000 nM | 10 to 1000 nM | 10 to 1000 nM | < 10 nM | < 10 nM | 10 to 1000 nM | < 10 nM | 10 to 1000 nM | < 1000 nM | < 1000 nM | < 1000 nM | better or comparable | < 1000 nM | better or comparable | better or comparable | better or comparable | < 10 nM
11 | NCc1ccc(-c2cn(Cc3ccc4c(c3C(=O)O)OB(O)CC4)nn2)cc1 [Compound 63] | 10 to 1000 nM | 10 to 1000 nM | 10 to 1000 nM | 10 to 1000 nM | < 10 nM | < 10 nM | 10 to 1000 nM | 10 to 1000 nM | 10 to 1000 nM | < 1000 nM | < 1000 nM | < 1000 nM | better or comparable | < 1000 nM | better or comparable | better or comparable | better or comparable | 
12 | NCc1cnn(Cc2ccc3c(c2C(=O)O)OB(O)[C@@H](Sc2nncs2)C3)c1 [Compound 68] | 1000 to 100000 nM | 1000 to 100000 nM | 10 to 1000 nM | 10 to 1000 nM | 1000 to 100000 nM | 1000 to 100000 nM | 1000 to 100000 nM | 1000 to 100000 nM | 1000 to 100000 nM |  |  |  |  |  |  |  |  | 
13 | CO[C@H]1Cc2ccc(Cn3cc(CN)cn3)c(C(=O)O)c2OB1O [Compound 69] | 1000 to 100000 nM | 1000 to 100000 nM | 10 to 1000 nM | 10 to 1000 nM | 1000 to 100000 nM | 1000 to 100000 nM | 1000 to 100000 nM | 1000 to 100000 nM | 1000 to 100000 nM |  |  |  |  |  |  |  |  | 
14 | NC1CN(Cc2cnn(Cc3ccc4c(c3C(=O)O)OB(O)CC4)c2)C1 [Compound 75] | 1000 to 100000 nM | > 100000 nM | 1000 to 100000 nM | > 100000 nM | 1000 to 100000 nM | 10 to 1000 nM | 1000 to 100000 nM | 1000 to 100000 nM | > 100000 nM |  |  |  |  |  |  |  |  | 
